Drawing on patent US10730874B2 (Shire Human Genetic Therapies, Inc., priority 2018, dated 2020), this text covers EC50 for 27 compounds.

Chain of human activated kallikrein enzyme (plasma kallikrein) (P03952 391-638): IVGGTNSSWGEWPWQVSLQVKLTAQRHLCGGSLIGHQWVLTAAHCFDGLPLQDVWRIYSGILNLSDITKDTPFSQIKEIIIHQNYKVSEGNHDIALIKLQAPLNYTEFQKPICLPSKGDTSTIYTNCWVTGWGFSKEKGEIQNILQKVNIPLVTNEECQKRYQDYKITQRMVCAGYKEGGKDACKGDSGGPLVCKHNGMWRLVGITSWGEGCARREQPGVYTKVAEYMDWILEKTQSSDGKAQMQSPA
Chain of human activated kallikrein enzyme (plasma kallikrein) (P03952 20-390 partner): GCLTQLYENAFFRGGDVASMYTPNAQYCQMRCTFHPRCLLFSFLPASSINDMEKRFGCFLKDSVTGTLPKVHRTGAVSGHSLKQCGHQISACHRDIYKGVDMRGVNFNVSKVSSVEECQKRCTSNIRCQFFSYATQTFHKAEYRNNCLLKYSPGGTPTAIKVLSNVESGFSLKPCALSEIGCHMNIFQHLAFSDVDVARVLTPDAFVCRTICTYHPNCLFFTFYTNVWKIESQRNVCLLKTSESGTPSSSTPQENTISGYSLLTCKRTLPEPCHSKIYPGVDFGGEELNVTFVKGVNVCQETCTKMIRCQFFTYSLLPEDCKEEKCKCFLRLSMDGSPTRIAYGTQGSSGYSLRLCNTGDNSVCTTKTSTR

The target of the first experiment is human activated kallikrein enzyme (plasma kallikrein) (Homo sapiens (Human), UniProt P03952). Nature of the experiment: Inhibition of human activated plasma kallikrein, fluorogenic peptide substrate assay, 500 pM enzyme format. As to conditions: 500 pM activated kallikrein enzyme, 300 uM Pro-Phe-Arg-7-amido-4-methylcoumarin substrate, 30 min preincubation, 10 min at RT; read-out: Primary Dose Response Assay: Average EC50. It counts as biochemical. Put shortly:
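Buffer 20 mM Tris pH 7.5, EDTA, NaCl, PEG-400, Triton X-100; 300 uM Pro-Phe-Arg-AMC; enzyme–inhibitor preincubation 30 min RT. Format one: 500 pM kallikrein, 10 min RT reaction; format two: 5 pM kallikrein, 18 h RT reaction. Fluorescence read at 460 nm (380 nm excitation).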
On to `O=C(NCc1ncn2ccc(Cl)cc12)c1cnn(Cc2cn3cc(C4CC4)cc(C4(O)COC4)c3n2)c1` [Example I-122, N-((7-chloroimidazo[1,5-a]pyridin-1-yl)methyl)-1-((6-cyclopropyl-8-(3-hydroxyoxetan-3-yl)imidazo[1,2-a]pyridin-2-yl)methyl)-1H-pyrazole-4-carboxamide], for which the EC50 was less than 1 nM.

Turning to `O=C(NCc1ncn2ccc(Cl)c(F)c12)c1cn(Cc2nc3ccc(C4CC4)cn3c2F)nn1` [Example I-240, N-((7-chloro-8-fluoroimidazo[1,5-a]pyridin-1-yl)methyl)-1-((6-cyclopropyl-3-fluoroimidazo[1,2-a]pyridin-2-yl)methyl)-1H-1,2,3-triazole-4-carboxamide], the EC50 was less than 1 nM.

On to `O=C(NCc1ncn2ccc(Cl)c(F)c12)c1cn(Cc2cc3cc(C4CC4)ccc3[nH]2)nn1` [Example I-232, N-((7-chloro-8-fluoroimidazo[1,5-a]pyridin-1-yl)methyl)-1-((5-cyclopropyl-1H-indol-2-yl)methyl)-1H-1,2,3-triazole-4-carboxamide], for which the EC50 fell in the range of 10 to 100 nM.

Turning to `COC(=O)c1c(Cn2cc(C(=O)NCc3ncn4ccc(Cl)c(F)c34)nn2)[nH]c2cc(C3CC3)ccc12` [Example I-195, methyl 2-((4-(((7-chloro-8-fluoroimidazo[1,5-a]pyridin-1-yl)methyl)carbamoyl)-1H-1,2,3-triazol-1-yl)methyl)-6-cyclopropyl-1H-indole-3-carboxylate], the 50% effective concentration (EC50) fell in the range of 100 to 2000 nM.

With `Cc1c(Cl)ccc2nc(Cn3cc(C(=O)NCc4ncn5ccc(Cl)cc45)cn3)cn12` [Example I-7, 1-((6-chloro-5-methylimidazo[1,2-a]pyridin-2-yl)methyl)-N-((7-chloroimidazo[1,5-a]pyridin-1-yl)methyl)-1H-pyrazole-4-carboxamide], the EC50 lay within 1 to 10 nM.

Turning to `O=C(NCc1ncn2ccc(Br)cc12)c1cn(Cc2cn3cc(C4CC4)ccc3n2)nn1` [Example I-303, N-((7-bromoimidazo[1,5-a]pyridin-1-yl)methyl)-1-((6-cyclopropylimidazo[1,2-a]pyridin-2-yl)methyl)-1H-1,2,3-triazole-4-carboxamide], the EC50 is less than 1 nM.

Regarding `O=C(NCc1ncn2ccc(Cl)cc12)c1nnc(Cc2cn3cc(C4CC4)ccc3n2)[nH]1` [Example I-161, N-((7-chloroimidazo[1,5-a]pyridin-1-yl)methyl)-5-((6-cyclopropylimidazo[1,2-a]pyridin-2-yl)methyl)-4H-1,2,4-triazole-3-carboxamide], the EC50 is 1 to 10 nM.

Consider `CC(C)(Cc1cc(C2CC2)cn2cc(Cn3cc(C(=O)NCc4ncn5ccc(Cl)cc45)nn3)nc12)C(=O)O` [Example I-170, 3-(2-((4-(((7-chloroimidazo[1,5-a]pyridin-1-yl)methyl)carbamoyl)-1H-1,2,3-triazol-1-yl)methyl)-6-cyclopropylimidazo[1,2-a]pyridin-8-yl)-2,2-dimethylpropanoic acid], for which the EC50 was less than 1 nM.

With `O=C(NCc1ncn2ccc(Cl)cc12)c1cn(Cc2cn3cc(C4CC4)ccc3n2)nc1Cc1nn[nH]n1` [Example I-126, 3-((2H-tetrazol-5-yl)methyl)-N-((7-chloroimidazo[1,5-a]pyridin-1-yl)methyl)-1-((6-cyclopropylimidazo[1,2-a]pyridin-2-yl)methyl)-1H-pyrazole-4-carboxamide], the EC50 was less than 1 nM.

With `Cc1nnc(C)n1-c1cc(C2CC2)cn2cc(Cn3cc(C(=O)NCc4ncn5ccc(Cl)c(F)c45)nn3)nc12` [Example I-253, N-((7-chloro-8-fluoroimidazo[1,5-a]pyridin-1-yl)methyl)-1-((6-cyclopropyl-8-(3,5-dimethyl-4H-1,2,4-triazol-4-yl)imidazo[1,2-a]pyridin-2-yl)methyl)-1H-1,2,3-triazole-4-carboxamide], the EC50 is less than 1 nM.

Take `O=C(NCc1ncn2ccc(Cl)cc12)c1cnn(Cc2cn3cc(C4CC4)cc(CCO)c3n2)c1` [Example I-87, N-((7-chloroimidazo[1,5-a]pyridin-1-yl)methyl)-1-((6-cyclopropyl-8-(hydroxyethyl)imidazo[1,2-a]pyridin-2-yl)methyl)-1H-pyrazole-4-carboxamide]: the EC50 was less than 1 nM.

In the case of `O=C(NCc1ncn2ccc(Cl)cc12)c1cnn(Cc2cn3cccc(C4(C(=O)O)CC4)c3n2)c1` [Example I-116, 1-(2-((4-(((7-chloroimidazo[1,5-a]pyridin-1-yl)methyl)carbamoyl)-1H-pyrazol-1-yl)methyl)imidazo[1,2-a]pyridin-8-yl)cyclopropane-1-carboxylic acid], the EC50 was in the range of 1 to 10 nM.

For the compound `CC1(C)CC1c1ccn2cc(Cn3cc(C(=O)NCc4ncn5ccc(Cl)cc45)cn3)nc2c1` (stereo not drawn) [Example I-41, N-((7-chloroimidazo[1,5-a]pyridin-1-yl)methyl)-1-((7-(2,2-dimethylcyclopropyl)imidazo[1,2-a]pyridin-2-yl)methyl)-1H-pyrazole-4-carboxamide], the EC50 is 10 to 100 nM.

Take `N#Cc1cc(C2CC2)cn2cc(Cc3nnc(C(=O)NCc4ncn5ccc(Br)c(F)c45)o3)nc12` [Example I-154, N-((7-bromo-8-fluoroimidazo[1,5-a]pyridin-1-yl)methyl)-5-((8-cyano-6-cyclopropylimidazo[1,2-a]pyridin-2-yl)methyl)-1,3,4-oxadiazole-2-carboxamide]: the EC50 was less than 1 nM.

With `Cc1ccc2nc(Cn3cc(C(=O)NCc4ncn5ccc(Cl)c(C)c45)cn3)cn2c1` [Example I-35, N-((7-chloro-8-methylimidazo[1,5-a]pyridin-1-yl)methyl)-1-((6-methylimidazo[1,2-a]pyridin-2-yl)methyl)-1H-pyrazole-4-carboxamide], the EC50 fell in the range of 100 to 2000 nM.

Consider `O=C(NCc1ncn2ccc(Br)cc12)c1cnn(Cc2cn3cc(C4CC4)ccc3n2)c1` [Example I-5, N-((7-bromoimidazo[1,5-a]pyridin-1-yl)methyl)-1-((6-cyclopropylimidazo[1,2-a]pyridin-2-yl)methyl)-1H-pyrazole-4-carboxamide], for which the EC50 is less than 1 nM.

Regarding `O=C(NCc1ncn2ccc(Cl)cc12)c1cnn(Cc2ccc3ncc(Cl)cc3c2)c1` [Example I-1, N-((7-chloroimidazo[1,5-a]pyridin-1-yl)methyl)-1-((3-chloroquinolin-6-yl)methyl)-1H-pyrazole-4-carboxamide], the EC50 was 10 to 100 nM.

As for `O=C(NCc1ncn2ccc(Br)c(F)c12)c1nnc(Cc2cn3nc(C4CC4)ccc3n2)o1` [Example I-140, N-((7-bromo-8-fluoroimidazo[1,5-a]pyridin-1-yl)methyl)-5-((6-cyclopropylimidazo[1,2-b]pyridazin-2-yl)methyl)-1,3,4-oxadiazole-2-carboxamide], the EC50 was less than 1 nM.

On to `O=C(O)CCc1cc(C2CC2)cn2cc(Cn3cc(C(=O)NCc4ncn5ccc(Cl)cc45)cn3)nc12` [Example I-100c, 3-(2-((4-(((7-chloroimidazo[1,5-a]pyridin-1-yl)methyl)carbamoyl)-1H-pyrazol-1-yl)methyl)-6-cyclopropylimidazo[1,2-a]pyridin-8-yl)propanoic acid], for which the EC50 was less than 1 nM.

As to `Cn1c(Cn2cc(C(=O)NCc3ncn4ccc(Cl)c(F)c34)nn2)cc2cc(C3CC3)ccc21` [Example I-233, N-((7-chloro-8-fluoroimidazo[1,5-a]pyridin-1-yl)methyl)-1-((5-cyclopropyl-1-methyl-1H-indol-2-yl)methyl)-1H-1,2,3-triazole-4-carboxamide], the EC50 fell in the range of 1 to 10 nM.

As to `O=C(NCc1ncn2ccc(Cl)c(F)c12)c1cn(Cc2cn3nccc(CC4COC4)c3n2)nn1` [Example I-296, N-((7-chloro-8-fluoroimidazo[1,5-a]pyridin-1-yl)methyl)-1-((8-(oxetan-3-ylmethyl)imidazo[1,2-b]pyridazin-2-yl)methyl)-1H-1,2,3-triazole-4-carboxamide], the EC50 was in the range of 10 to 100 nM.

For the compound `CCOC(=O)CC(c1cn2cc(C3CC3)ccc2n1)n1cc(C(=O)NCc2ncn3ccc(Cl)c(F)c23)nn1` (stereo not drawn) [Example I-227a, ethyl 3-(4-(((7-chloro-8-fluoroimidazo[1,5-a]pyridin-1-yl)methyl)carbamoyl)-1H-1,2,3-triazol-1-yl)-3-(6-cyclopropylimidazo[1,2-a]pyridin-2-yl)propanoate], the EC50 lay within 10 to 100 nM.

Regarding `C#Cc1c(C2CC2)ccc2nc(Cn3cc(C(=O)NCc4ncn5ccc(Cl)cc45)cn3)cn12` [Example I-79, N-((7-chloroimidazo[1,5-a]pyridin-1-yl)methyl)-1-((6-cyclopropyl-5-ethynylimidazo[1,2-a]pyridin-2-yl)methyl)-1H-pyrazole-4-carboxamide], the concentration giving a half-maximal response (EC50) is 1 to 10 nM.

Take `Cc1cc2nc(Cn3cc(C(=O)NCc4ncn5ccc(Cl)cc45)cn3)cn2cc1Br` [Example I-28, 1-((6-bromo-7-methylimidazo[1,2-a]pyridin-2-yl)methyl)-N-((7-chloroimidazo[1,5-a]pyridin-1-yl)methyl)-1H-pyrazole-4-carboxamide]: the EC50 is 1 to 10 nM.

On to `O=C(NCc1ncn2ccc(Cl)c(F)c12)c1cnn(Cc2cn3ccccc3n2)c1` [Example I-284, N-((7-chloro-8-fluoroimidazo[1,5-a]pyridin-1-yl)methyl)-1-(imidazo[1,2-a]pyridin-2-ylmethyl)-1H-pyrazole-4-carboxamide], for which the concentration for a half-maximal effect (EC50) was 10 to 100 nM.

With `O=C(O)c1ccn(Cc2cc(C3CC3)cn3cc(Cn4cc(C(=O)NCc5ncn6ccc(Cl)c(F)c56)nn4)nc23)n1` [Example I-202, 1-((2-((4-(((7-chloro-8-fluoroimidazo[1,5-a]pyridin-1-yl)methyl)carbamoyl)-1H-1,2,3-triazol-1-yl)methyl)-6-cyclopropylimidazo[1,2-a]pyridin-8-yl)methyl)-1H-pyrazole-3-carboxylic acid], the EC50 is less than 1 nM.

Still in this experiment, the particulars now being: comparative compounds (Table II); assay format with 500 pM (500 μM in the source) activated kallikrein; read-out: Primary Dose Response Assay: Average EC50.
For `COCc1nn(Cc2ccc(Cn3ccccc3=O)cc2)cc1C(=O)NCc1c(C#N)ccc(OC)c1F` [reference compound], the EC50 was 1 to 10 nM.

As usually defined, the EC50 is the concentration needed to bring the measured effect to its halfway point.
